According to ChEMBL document CHEMBL3259634, “Novel benzopolycyclic amines with NMDA receptor antagonist activity” (Bioorg Med Chem, 2014):

Target: Glutamate NMDA receptor
Experiment: Antagonist activity at NMDA receptor in primary culture of rat cerebellar granule neurons assessed as inhibition of NMDA-induced intracellular calcium level by fluorescence spectrophotometric analysis
Type: cell-based

Structure (SMILES) | IC50 [µM]
NC12CC3CC(C1)c1ccccc1C(C3)C2 | 0.7
CN(C)C12CC3CC(C1)c1ccccc1C(C3)C2 | 2.3
CN(C)C12CC3CC(O)(CC(C1)c1ccccc13)C2 | 71.1
CN(C)C12CC3CC(F)(CC(C1)c1ccccc13)C2 | 16.5
NC12CC3CC(O)(CC(C1)c1ccccc13)C2 | 16.2

The next lines start with the values.

IC50 [µM] | Structure (SMILES)
1.93 | NC12CC3CC(F)(CC(C1)c1ccccc13)C2
24.3 | COC12CC3CC(N)(CC(C1)c1ccccc13)C2
